According to article PMC6316713, “Design, Synthesis, Experimental and Theoretical Characterization of a New Multitarget 2-Thienyl-N-Acylhydrazone Derivative” (Pharmaceuticals, 2018):

What was measured:
PDE4B1 = biological target: T1, PDE4B1 (Homo sapiens, UniProt Q07343); assay: IMAP FP PDE assay, % inhibition at […]; type: biochemical; settings: read-out: PDE4B1 ^a
T1 construct: gene PDE4B; isoform PDE4B1, human recombinant

PDE4A1A [1] = biological target: T2, PDE4A1A (Homo sapiens, UniProt P27815); assay: IMAP FP PDE assay, % inhibition at […]; type: biochemical
T2 construct: gene PDE4A; isoform PDE4A1A, human recombinant
T2 sequence (P27815 265-886 limits assumed): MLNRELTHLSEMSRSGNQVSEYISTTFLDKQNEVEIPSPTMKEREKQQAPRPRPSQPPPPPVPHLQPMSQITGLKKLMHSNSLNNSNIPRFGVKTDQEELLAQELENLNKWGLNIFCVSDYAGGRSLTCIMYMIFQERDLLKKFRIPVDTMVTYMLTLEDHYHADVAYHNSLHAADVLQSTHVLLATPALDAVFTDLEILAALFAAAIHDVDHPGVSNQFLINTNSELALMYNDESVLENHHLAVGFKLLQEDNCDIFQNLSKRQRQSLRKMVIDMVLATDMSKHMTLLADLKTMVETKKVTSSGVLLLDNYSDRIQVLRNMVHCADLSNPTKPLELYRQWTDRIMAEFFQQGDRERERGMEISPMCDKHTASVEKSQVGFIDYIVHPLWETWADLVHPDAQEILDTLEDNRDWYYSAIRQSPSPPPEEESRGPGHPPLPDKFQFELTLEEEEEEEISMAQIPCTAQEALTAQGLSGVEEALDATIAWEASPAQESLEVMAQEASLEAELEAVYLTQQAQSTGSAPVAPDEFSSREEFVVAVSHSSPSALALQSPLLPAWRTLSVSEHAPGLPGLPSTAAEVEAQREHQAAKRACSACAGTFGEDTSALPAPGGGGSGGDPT

PDE4A1A [2] = biological target: T2, PDE4A1A; assay: IMAP FP PDE assay (FAM-cAMP), concentration-response; type: biochemical
PDE4D3 = biological target: T3, PDE4D3 (Homo sapiens, UniProt Q08499); assay: IMAP FP PDE assay, % inhibition at […]; type: biochemical
T3 construct: gene PDE4D; isoform PDE4D3, human recombinant
T3 sequence (Q08499 153-809): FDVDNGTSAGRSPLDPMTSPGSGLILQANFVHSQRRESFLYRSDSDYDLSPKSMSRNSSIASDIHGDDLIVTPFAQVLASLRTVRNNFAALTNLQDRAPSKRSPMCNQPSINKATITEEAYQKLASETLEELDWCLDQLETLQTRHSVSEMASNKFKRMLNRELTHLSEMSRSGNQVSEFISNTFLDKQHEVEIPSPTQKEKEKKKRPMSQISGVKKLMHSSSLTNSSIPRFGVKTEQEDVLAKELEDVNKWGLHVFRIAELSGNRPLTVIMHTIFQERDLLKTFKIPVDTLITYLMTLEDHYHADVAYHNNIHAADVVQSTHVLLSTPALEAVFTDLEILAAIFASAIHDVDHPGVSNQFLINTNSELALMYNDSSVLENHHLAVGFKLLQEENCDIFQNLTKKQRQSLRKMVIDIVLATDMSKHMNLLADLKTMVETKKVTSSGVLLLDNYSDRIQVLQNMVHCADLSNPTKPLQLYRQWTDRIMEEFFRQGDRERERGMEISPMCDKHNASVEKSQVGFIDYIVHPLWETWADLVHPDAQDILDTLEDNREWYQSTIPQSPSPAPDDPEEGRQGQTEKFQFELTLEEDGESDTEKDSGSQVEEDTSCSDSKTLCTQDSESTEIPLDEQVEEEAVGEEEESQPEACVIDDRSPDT

adenosine A2A receptor = biological target: T4, adenosine A2A receptor (Homo sapiens, UniProt P29274); assay: radioligand displacement with [3H]-CGS21680; type: binding
T4 construct: gene ADORA2A; human recombinant, expressed in HEK 293 cells
T4 sequence (P29274 whole entry): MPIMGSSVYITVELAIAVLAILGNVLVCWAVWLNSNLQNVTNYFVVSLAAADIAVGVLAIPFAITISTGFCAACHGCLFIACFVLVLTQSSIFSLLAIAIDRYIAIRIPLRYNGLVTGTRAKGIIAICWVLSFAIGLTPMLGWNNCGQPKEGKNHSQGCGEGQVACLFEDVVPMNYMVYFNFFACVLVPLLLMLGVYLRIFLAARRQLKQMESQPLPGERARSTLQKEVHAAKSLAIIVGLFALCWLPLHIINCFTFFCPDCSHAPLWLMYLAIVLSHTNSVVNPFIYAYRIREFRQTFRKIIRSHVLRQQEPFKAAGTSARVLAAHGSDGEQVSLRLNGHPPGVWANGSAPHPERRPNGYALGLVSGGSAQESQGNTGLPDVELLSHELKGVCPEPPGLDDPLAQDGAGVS

T1 sequence (Q07343 whole entry, canonical isoform): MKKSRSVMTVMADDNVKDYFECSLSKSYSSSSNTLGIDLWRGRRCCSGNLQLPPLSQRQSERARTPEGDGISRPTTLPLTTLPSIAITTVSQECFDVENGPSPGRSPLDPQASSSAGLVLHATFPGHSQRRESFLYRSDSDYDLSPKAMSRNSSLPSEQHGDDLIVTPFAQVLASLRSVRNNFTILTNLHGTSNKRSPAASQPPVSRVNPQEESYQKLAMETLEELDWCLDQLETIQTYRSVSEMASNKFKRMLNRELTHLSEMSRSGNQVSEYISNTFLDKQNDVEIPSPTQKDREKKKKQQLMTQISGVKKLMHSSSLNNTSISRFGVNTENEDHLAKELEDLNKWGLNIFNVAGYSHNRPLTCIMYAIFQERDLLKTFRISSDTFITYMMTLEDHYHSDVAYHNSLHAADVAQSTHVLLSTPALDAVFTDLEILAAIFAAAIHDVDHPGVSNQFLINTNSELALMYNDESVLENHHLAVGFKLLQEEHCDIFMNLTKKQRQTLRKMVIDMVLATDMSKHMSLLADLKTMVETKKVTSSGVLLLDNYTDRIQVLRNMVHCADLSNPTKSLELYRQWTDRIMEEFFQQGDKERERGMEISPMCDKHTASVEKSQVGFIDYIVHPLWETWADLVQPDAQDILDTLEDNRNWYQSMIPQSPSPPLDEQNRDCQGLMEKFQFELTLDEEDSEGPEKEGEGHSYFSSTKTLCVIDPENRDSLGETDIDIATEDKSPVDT

SMILES | inhibition at 10 µM (PDE4B1) [%] | inhibition at 10 µM (PDE4A1A [1]) [%] | IC50 (PDE4A1A [2]) [nM] | inhibition at 10 µM (PDE4D3) [%] | Ki (adenosine A2A receptor) [nM]
COc1ccc(/C=N/NC(=O)c2cccs2)cc1OC [compound 3, LASSBio-1834] | 48 | 53 |  |  | 
COc1ccc(/C=N/N(C)C(=O)c2cccs2)cc1OC [compound 4, LASSBio-1835] | 44 |  | 1080 | 40 | 1500
